According to patent US12180187B2, “1-phenyl-5-azinylpyrazolyl-3-oxyalkyl acids and their use for controlling unwanted plant growth” (BAYER AKTIENGESELLSCHAFT, priority 2019, dated 2024):

Experiments:
[1] = system: ALOMY; assay: Pre-emergence action against ALOMY, 1280 g/ha; type: in vivo, Alopecurus myosuroides; conditions: visual scoring after about 3 weeks vs untreated controls, 100% = plants have died, 0% = like control plants
Procedure, shortened: (§1)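 Compound applied as WP or EC in aqueous spray (0.5% additive, 600 L/ha) to the surface of sandy loam covering freshly sown seeds. After about 3 weeks under good greenhouse conditions, damage is given as visual percentage, 100% meaning plant death.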

[2] = system: DIGSA; assay: Pre-emergence action against DIGSA, 1280 g/ha; type: in vivo, Digitaria sanguinalis; conditions: visual scoring after about 3 weeks vs untreated controls, 100% = plants have died, 0% = like control plants
Procedure, shortened: as §1

[3] = system: ECHCG; assay: Pre-emergence action against ECHCG, 1280 g/ha; type: in vivo, Echinochloa crus-galli; conditions: visual scoring after about 3 weeks vs untreated controls, 100% = plants have died, 0% = like control plants
Procedure, shortened: as §1

[4] = system: LOLRI; assay: Pre-emergence action against LOLRI, 1280 g/ha; type: in vivo, Lolium rigidum; conditions: visual scoring after about 3 weeks vs untreated controls, 100% = plants have died, 0% = like control plants
Procedure, shortened: as §1

[5] = system: POAAN; assay: Pre-emergence action against POAAN, 1280 g/ha; type: in vivo, Poa annua; conditions: visual scoring after about 3 weeks vs untreated controls, 100% = plants have died, 0% = like control plants
Procedure, shortened: as §1

[6] = system: SETVI; assay: Pre-emergence action against SETVI, 1280 g/ha; type: in vivo, Setaria viridis; conditions: visual scoring after about 3 weeks vs untreated controls, 100% = plants have died, 0% = like control plants
Procedure, shortened: as §1

[7] = system: ABUTH; assay: Pre-emergence action against ABUTH, 1280 g/ha; type: in vivo, Abutilon theophrasti; conditions: scored visually after about 3 weeks vs untreated controls (100% = plants have died)
Procedure, shortened: as §1

[8] = system: AMARE; assay: Pre-emergence action against AMARE, 1280 g/ha; type: in vivo, Amaranthus retroflexus; conditions: scored visually after about 3 weeks vs untreated controls (100% = plants have died)
Procedure, shortened: as §1

[9] = system: KCHSC; assay: Pre-emergence action against KCHSC, 1280 g/ha; type: in vivo, Bassia scoparia; conditions: scored visually after about 3 weeks vs untreated controls (100% = plants have died)
Procedure, shortened: as §1

[10] = system: MATIN; assay: Pre-emergence action against MATIN, 1280 g/ha; type: in vivo, Tripleurospermum inodorum (Matricaria inodora); conditions: scored visually after about 3 weeks vs untreated controls (100% = plants have died)
Procedure, shortened: as §1

[11] = system: STEME; assay: Pre-emergence action against STEME, 1280 g/ha; type: in vivo, Stellaria media; conditions: scored visually after about 3 weeks vs untreated controls (100% = plants have died)
Procedure, shortened: as §1

[12] = system: VERPE; assay: Pre-emergence action against VERPE, 1280 g/ha; type: in vivo, Veronica persica; conditions: scored visually after about 3 weeks vs untreated controls (100% = plants have died)
Procedure, shortened: as §1

[13] = system: ALOMY; assay: Pre-emergence action at 320 g/ha against ALOMY; type: in vivo, Alopecurus myosuroides; conditions: scored visually after about 3 weeks vs untreated controls (100% = plants have died)
Procedure, shortened: (§2)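 Visual % scoring at about 3 weeks post-treatment against untreated pots (0% = like control, 100% = dead), greenhouse-grown. Compounds applied at 320 g/ha as aqueous WP/EC suspension or emulsion plus 0.5% additive, 600 l/ha water, onto covering soil of freshly sown pots before emergence.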

[14] = system: AVEFA; assay: Pre-emergence action at 320 g/ha against AVEFA; type: in vivo; conditions: visual scoring after about 3 weeks vs untreated controls
Procedure, shortened: as §2

[15] = system: DIGSA; assay: Pre-emergence action at 320 g/ha against DIGSA; type: in vivo, Digitaria sanguinalis; conditions: visual scoring after about 3 weeks vs untreated controls
Procedure, shortened: as §2

[16] = system: ECHGC; assay: Pre-emergence action at 320 g/ha against ECHGC; type: in vivo, Echinochloa crus-galli; conditions: visual scoring after about 3 weeks vs untreated controls
Procedure, shortened: as §2

[17] = system: LOLRI; assay: Pre-emergence action at 320 g/ha against LOLRI; type: in vivo, Lolium rigidum; conditions: visual scoring after about 3 weeks vs untreated controls
Procedure, shortened: as §2

[18] = system: SETVI; assay: Pre-emergence action at 320 g/ha against SETVI; type: in vivo, Setaria viridis; conditions: visual scoring after about 3 weeks vs untreated controls
Procedure, shortened: as §2

[19] = system: AMARE; assay: Pre-emergence action at 320 g/ha against AMARE; type: in vivo, Amaranthus retroflexus; conditions: visual scoring after about 3 weeks vs untreated controls
Procedure, shortened: as §2

[20] = system: MATIN; assay: Pre-emergence action at 320 g/ha against MATIN; type: in vivo, Tripleurospermum inodorum (Matricaria inodora); conditions: visual scoring after about 3 weeks vs untreated controls
Procedure, shortened: as §2

[21] = system: PHBPU; assay: Pre-emergence action at 320 g/ha against PHBPU; type: in vivo; conditions: visual scoring after about 3 weeks vs untreated controls
From the text: b) Seeds of monocotyledonous and dicotyledonous weed plants and crop plants are placed in plastic or organic planting pots and covered with soil. The compounds of the invention, formulated in the form of wettable powders (WP) or as emulsion concentrates (EC), are then applied onto the surface of the covering soil as aqueous suspension or emulsion with addition of 0.5% additive at a water application rate of 600 l/ha (converted). After the treatment, the pots are placed in a greenhouse and kept under good growth conditions for the trial plants. After about 3 weeks, the effect of the preparations is scored visually in comparison with untreated controls as percentages. For example, 100% activity=the plants have died, 0% activity=like control plants. Tables 13 to 26 below show the effects of selected compounds of the general formula (I) on various harmful plants and at an application rate corresponding to 320 g/ha, which were obtained by the experimental procedure mentioned above.

[22] = system: POLCO; assay: Pre-emergence action at 320 g/ha against POLCO; type: in vivo, Fallopia convolvulus (Polygonum convolvulus); conditions: visual scoring after about 3 weeks vs untreated controls
Procedure, shortened: as §2

[23] = system: VERPE; assay: Pre-emergence action at 320 g/ha against VERPE; type: in vivo, Veronica persica; conditions: visual scoring after about 3 weeks vs untreated controls
Procedure, shortened: as §2

[24] = system: VIOTR; assay: Pre-emergence action at 320 g/ha against VIOTR; type: in vivo, Viola tricolor; conditions: dosage 320 g/ha
Procedure, shortened: as §2

[25] = system: ALOMY; assay: Post-emergence action against ALOMY, 1.28 kg/ha; type: in vivo, Alopecurus myosuroides; conditions: dosage 1280 g/ha, visual rating about 3 weeks after treatment vs untreated controls
Procedure, shortened: (§3)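 Activity scored visually roughly 3 weeks after treatment against untreated plants (0% = as control, 100% = dead). Plants grown in sandy loam in greenhouse, treated at one-leaf stage, 2–3 weeks post-sowing, with WP/EC spray containing 0.5% additive at 600 l/ha.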

[26] = system: DIGSA; assay: Post-emergence action against DIGSA, 1.28 kg/ha; type: in vivo, Digitaria sanguinalis; conditions: dosage 1280 g/ha, visual rating about 3 weeks after treatment vs untreated controls
Procedure, shortened: as §3

[27] = system: ECHCG; assay: Post-emergence action against ECHCG, 1.28 kg/ha; type: in vivo, Echinochloa crus-galli; conditions: dosage 1280 g/ha, visual rating about 3 weeks after treatment vs untreated controls
Procedure, shortened: as §3

[28] = system: LOLRI; assay: Post-emergence action against LOLRI, 1.28 kg/ha; type: in vivo, Lolium rigidum; conditions: dosage 1280 g/ha, visual rating about 3 weeks after treatment vs untreated controls
Procedure, shortened: as §3

[29] = system: POAAN; assay: Post-emergence action against POAAN, 1.28 kg/ha; type: in vivo, Poa annua; conditions: dosage 1280 g/ha, visual rating about 3 weeks after treatment vs untreated controls
Procedure, shortened: as §3

[30] = system: SETVI; assay: Post-emergence action against SETVI, 1.28 kg/ha; type: in vivo, Setaria viridis; conditions: dosage 1280 g/ha, visual rating about 3 weeks after treatment vs untreated controls
Procedure, shortened: as §3

[31] = system: ABUTH; assay: Post-emergence action against ABUTH, 1.28 kg/ha; type: in vivo, Abutilon theophrasti; conditions: dosage 1280 g/ha, visual rating about 3 weeks after treatment vs untreated controls (100% = plants died)
Procedure, shortened: as §3

[32] = system: AMARE; assay: Post-emergence action against AMARE, 1.28 kg/ha; type: in vivo, Amaranthus retroflexus; conditions: dosage 1280 g/ha, visual rating about 3 weeks after treatment vs untreated controls (100% = plants died)
Procedure, shortened: as §3

[33] = system: MATIN; assay: Post-emergence action against MATIN, 1.28 kg/ha; type: in vivo, Tripleurospermum inodorum (Matricaria inodora); conditions: dosage 1280 g/ha, visual rating about 3 weeks after treatment vs untreated controls (100% = plants died)
Procedure, shortened: as §3

[34] = system: STEME; assay: Post-emergence action against STEME, 1.28 kg/ha; type: in vivo, Stellaria media; conditions: dosage 1280 g/ha, visual rating about 3 weeks after treatment vs untreated controls (100% = plants died)
Procedure, shortened: as §3

[35] = system: VERPE; assay: Post-emergence action against VERPE, 1.28 kg/ha; type: in vivo, Veronica persica; conditions: dosage 1280 g/ha, visual rating about 3 weeks after treatment vs untreated controls (100% = plants died)
Procedure, shortened: as §3

In the case of N#CCCOC(=O)COc1nn(-c2ccccc2F)c(-c2ccc(F)nc2)c1Br [VII-110], the “Pre-emergence action against ALOMY” value [1] is reported as 100%, the “Pre-emergence action against DIGSA” value [2] is reported as 100% and the “Pre-emergence action against ECHCG” value [3] is reported as 100%. For the same compound, the “Pre-emergence action against LOLRI” value [4] was 100%, the “Pre-emergence action against POAAN” value [5] was 100% and the “Pre-emergence action against SETVI” value [6] was 100%. The “Pre-emergence action against ABUTH” value [7] was 90%, the “Pre-emergence action against AMARE” value [8] was 100% and the “Pre-emergence action against KCHSC” value [9] was 90%. For the same compound, the “Pre-emergence action against MATIN” value [10] was 100%, the “Pre-emergence action against STEME” value [11] was 100% and the “Pre-emergence action against VERPE” value [12] was 100%. The “Pre-emergence action at 320 g/ha against ALOMY in %” value [13] was 100%, the “Pre-emergence action against AVEFA in %” value [14] was 80% and the “Pre-emergence action against DIGSA in %” value [15] was 100%. For the same compound, the “Pre-emergence action against ECHGC in %” value [16] was 100%, the “Pre-emergence action against LOLRI in %” value [17] was 100% and the “Pre-emergence action against SETVI in %” value [18] was 100%. For the same compound, the “Pre-emergence action against AMARE in %” value [19] was 100%, the “Pre-emergence action against MATIN in %” value [20] was 100% and the “Pre-emergence action against PHBPU in %” value [21] was 90%. The “Pre-emergence action against POLCO in %” value [22] was 100%, the “Pre-emergence action against VERPE in %” value [23] was 100% and the “Pre-emergence action against VIOTR in %” value [24] was 100%. For the same compound, the “Post-emergence action against ALOMY” value [25] was 100%, the “Post-emergence action against DIGSA” value [26] was 100% and the “Post-emergence action against ECHCG” value [27] was 100%. For the same compound, the “Post-emergence action against LOLRI” value [28] was 100%, the “Post-emergence action against POAAN” value [29] was 100% and the “Post-emergence action against SETVI” value [30] was 90%. For the same compound, the “Post-emergence action against ABUTH” value [31] was 90%, the “Post-emergence action against AMARE” value [32] was 90% and the “Post-emergence action against MATIN” value [33] was 100%. For the same compound, the “Post-emergence action against STEME” value [34] was 100% and the “Post-emergence action against VERPE” value [35] was 100%.

In the case of O=C(O)COc1nn(-c2ccccc2F)c(-c2ccc(F)nc2)c1F [VII-115], the “Pre-emergence action at 320 g/ha against ALOMY in %” value [13] is reported as 100%, the “Pre-emergence action against AVEFA in %” value [14] is reported as 90% and the “Pre-emergence action against DIGSA in %” value [15] is reported as 100%. The “Pre-emergence action against LOLRI in %” value [17] was 90%, the “Pre-emergence action against SETVI in %” value [18] was 100% and the “Pre-emergence action against AMARE in %” value [19] was 100%. The “Pre-emergence action against PHBPU in %” value [21] was 90%, the “Pre-emergence action against POLCO in %” value [22] was 80% and the “Pre-emergence action against VERPE in %” value [23] was 90%. For the same compound, the “Pre-emergence action against VIOTR in %” value [24] was 100%.

For C[C@@H](Oc1nn(-c2ccccc2F)c(-c2cncc(F)c2)c1Br)C(=O)O [VII-128], the “Pre-emergence action at 320 g/ha against ALOMY in %” value [13] was 100%, the “Pre-emergence action against AVEFA in %” value [14] was 80% and the “Pre-emergence action against DIGSA in %” value [15] was 100%. For the same compound, the “Pre-emergence action against ECHGC in %” value [16] was 90%, the “Pre-emergence action against LOLRI in %” value [17] was 100% and the “Pre-emergence action against SETVI in %” value [18] was 100%. For the same compound, the “Pre-emergence action against AMARE in %” value [19] was 100%, the “Pre-emergence action against MATIN in %” value [20] was 90% and the “Pre-emergence action against PHBPU in %” value [21] was 90%. For the same compound, the “Pre-emergence action against POLCO in %” value [22] was 90%, the “Pre-emergence action against VERPE in %” value [23] was 100% and the “Pre-emergence action against VIOTR in %” value [24] was 100%.
